Source: PubChem BioAssay AID1963440 (Molecular Pharmacology Branch, DTP, NCI, 2024)

Tested on: NCI-H1417 complex spheroids, growth % test/control
Assay: Anticancer human tumor NCI-H1417 cell line growth inhibition [Asc];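 further: spheroids exposed to compounds for 7 days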;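 on viability, T/C: 100% = DMSO vehicle control wells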
Conditions: for IC50: curve of first compound; for viability, T/C: stronger effect = lower value; active means viability on the fitted dose curve at most 10% of control; inactive means the rest
In short: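 Tumor cells were grown as multicellular spheroids with stromal HUVEC and mesenchymal stem cells and treated singly or in combination. Concentrations fell in half-log steps from the clinical Cmax, or from 10 microM where none was known.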

[1] = second compound 0.01 µM, first compound 0.0316 µM
[2] = second compound 0.01 µM, first compound 0.1 µM
[3] = second compound 0.01 µM, first compound 0.316 µM
[4] = second compound 0.01 µM, first compound 1 µM
[5] = second compound 0.0316 µM, first compound 0.0316 µM
[6] = second compound 0.0316 µM, first compound 0.1 µM
[7] = second compound 0.0316 µM, first compound 0.316 µM
[8] = second compound 0.0316 µM, first compound 1 µM
[9] = second compound 0.1 µM, first compound 0.0316 µM
[10] = second compound 0.1 µM, first compound 0.1 µM
[11] = second compound 0.1 µM, first compound 0.316 µM
[12] = second compound 0.1 µM, first compound 1 µM
[13] = second compound 0.316 µM, first compound 0.0316 µM
[14] = second compound 0.316 µM, first compound 0.1 µM
[15] = second compound 0.316 µM, first compound 0.316 µM
[16] = second compound 0.316 µM, first compound 1 µM
[17] = second compound 1 µM, first compound 0.0316 µM
[18] = second compound 1 µM, first compound 0.1 µM
[19] = second compound 1 µM, first compound 0.316 µM
[20] = second compound 1 µM, first compound 1 µM
[21] = second compound 0.01 µM, first compound 0.00316 µM
[22] = second compound 0.01 µM, first compound 0.01 µM
[23] = second compound 0.0316 µM, first compound 0.00316 µM
[24] = second compound 0.0316 µM, first compound 0.01 µM
[25] = second compound 0.1 µM, first compound 0.00316 µM
[26] = second compound 0.1 µM, first compound 0.01 µM
[27] = second compound 0.316 µM, first compound 0.00316 µM
[28] = second compound 0.316 µM, first compound 0.01 µM
[29] = second compound 1 µM, first compound 0.00316 µM
[30] = second compound 1 µM, first compound 0.01 µM

C=CC(=O)N1CCN(c2nc(=O)n(-c3c(C)ccnc3C(C)C)c3nc(-c4c(O)cccc4F)c(F)cc23)C(C)C1 (stereo not given) + CNC(C)C(=O)NC1CN(S(=O)(=O)c2cccc(S(=O)(=O)N3CCC4CCC(C(=O)NC(c5ccccc5)c5ccccc5)N4C(=O)C(NC(=O)C(C)NC)C3)c2)CCC2CCC(C(=O)NC(c3ccccc3)c3ccccc3)N2C1=O
> 10000 nM: IC50 (second compound 0.01 µM) | IC50 (second compound 0.0316 µM) | IC50 (second compound 0.1 µM) | IC50 (second compound 0.316 µM) | IC50 (second compound 1 µM)
inactive: viability, T/C [1] 94% | viability, T/C [2] 90% | viability, T/C [3] 97.6% | viability, T/C [4] 96.2% | viability, T/C (second compound 0.01 µM, first compound 3.16 µM) 102% | viability, T/C (second compound 0.01 µM, first compound 10 µM) 103% | viability, T/C [5] 88.1% | viability, T/C [6] 99.8% | viability, T/C [7] 89.9% | viability, T/C [8] 94.4% | viability, T/C (second compound 0.0316 µM, first compound 3.16 µM) 97.6% | viability, T/C (second compound 0.0316 µM, first compound 10 µM) 87.8% | viability, T/C [9] 99.3% | viability, T/C [10] 87.5% | viability, T/C [11] 96.7% | viability, T/C [12] 96.9% | viability, T/C (second compound 0.1 µM, first compound 3.16 µM) 92% | viability, T/C (second compound 0.1 µM, first compound 10 µM) 88.2% | viability, T/C [13] 84.6% | viability, T/C [14] 94.3% | viability, T/C [15] 94.6% | viability, T/C [16] 92.5% | viability, T/C (second compound 0.316 µM, first compound 3.16 µM) 93.8% | viability, T/C (second compound 0.316 µM, first compound 10 µM) 86.2% | viability, T/C [17] 90.9% | viability, T/C [18] 101% | viability, T/C [19] 89.4% | viability, T/C [20] 90.2% | viability, T/C (second compound 1 µM, first compound 3.16 µM) 104% | viability, T/C (second compound 1 µM, first compound 10 µM) 93.3%

COc1c(OCCCN2CCOCC2)ccc2c3n(c(=NC(=O)c4cnc(N)nc4)nc12)CCN3 + CNC(C)C(=O)NC1CN(S(=O)(=O)c2cccc(S(=O)(=O)N3CCC4CCC(C(=O)NC(c5ccccc5)c5ccccc5)N4C(=O)C(NC(=O)C(C)NC)C3)c2)CCC2CCC(C(=O)NC(c3ccccc3)c3ccccc3)N2C1=O
inactive: viability, T/C [21] 95.5% | viability, T/C [22] 109% | viability, T/C [1] 100% | viability, T/C [2] 82.3% | viability, T/C [3] 79.4% | viability, T/C [4] 58.4% | viability, T/C [23] 96.1% | viability, T/C [24] 93.8% | viability, T/C [5] 91.1% | viability, T/C [6] 78.5% | viability, T/C [7] 77.2% | viability, T/C [8] 57.8% | viability, T/C [25] 95.4% | viability, T/C [26] 96.5% | viability, T/C [9] 96.6% | viability, T/C [10] 81.1% | viability, T/C [11] 71.4% | viability, T/C [12] 53.8% | viability, T/C [27] 99.4% | viability, T/C [28] 97.7% | viability, T/C [13] 87.2% | viability, T/C [14] 74.1% | viability, T/C [15] 69.2% | viability, T/C [16] 56.4% | viability, T/C [29] 97.7% | viability, T/C [30] 99% | viability, T/C [17] 90.1% | viability, T/C [18] 83.4% | viability, T/C [19] 77.2% | viability, T/C [20] 56.4%
> 1000 nM: IC50 (second compound 0.01 µM) | IC50 (second compound 0.0316 µM) | IC50 (second compound 0.1 µM) | IC50 (second compound 0.316 µM) | IC50 (second compound 1 µM)

NC(=O)C(=Cn1cnc(-c2cc(C(F)(F)F)cc(C(F)(F)F)c2)n1)c1cncnc1 + CNC(C)C(=O)NC1CN(S(=O)(=O)c2cccc(S(=O)(=O)N3CCC4CCC(C(=O)NC(c5ccccc5)c5ccccc5)N4C(=O)C(NC(=O)C(C)NC)C3)c2)CCC2CCC(C(=O)NC(c3ccccc3)c3ccccc3)N2C1=O
inactive: viability, T/C (second compound 0.01 µM, first compound 0.000949 µM) 103% | viability, T/C (second compound 0.01 µM, first compound 0.003 µM) 93.3% | viability, T/C (second compound 0.01 µM, first compound 0.00949 µM) 99.5% | viability, T/C (second compound 0.01 µM, first compound 0.03 µM) 103% | viability, T/C (second compound 0.01 µM, first compound 0.0949 µM) 89.6% | viability, T/C (second compound 0.01 µM, first compound 0.3 µM) 63.3% | viability, T/C (second compound 0.0316 µM, first compound 0.000949 µM) 111% | viability, T/C (second compound 0.0316 µM, first compound 0.003 µM) 94.2% | viability, T/C (second compound 0.0316 µM, first compound 0.00949 µM) 93% | viability, T/C (second compound 0.0316 µM, first compound 0.03 µM) 102% | viability, T/C (second compound 0.0316 µM, first compound 0.0949 µM) 83.5% | viability, T/C (second compound 0.0316 µM, first compound 0.3 µM) 49.6% | viability, T/C (second compound 0.1 µM, first compound 0.000949 µM) 89.3% | viability, T/C (second compound 0.1 µM, first compound 0.003 µM) 104% | viability, T/C (second compound 0.1 µM, first compound 0.00949 µM) 105% | viability, T/C (second compound 0.1 µM, first compound 0.03 µM) 90.2% | viability, T/C (second compound 0.1 µM, first compound 0.0949 µM) 76% | viability, T/C (second compound 0.1 µM, first compound 0.3 µM) 47.8% | viability, T/C (second compound 0.316 µM, first compound 0.000949 µM) 110% | viability, T/C (second compound 0.316 µM, first compound 0.003 µM) 98.7% | viability, T/C (second compound 0.316 µM, first compound 0.00949 µM) 112% | viability, T/C (second compound 0.316 µM, first compound 0.03 µM) 92.2% | viability, T/C (second compound 0.316 µM, first compound 0.0949 µM) 86.7% | viability, T/C (second compound 0.316 µM, first compound 0.3 µM) 45.1% | viability, T/C (second compound 1 µM, first compound 0.000949 µM) 91.5% | viability, T/C (second compound 1 µM, first compound 0.003 µM) 92.7% | viability, T/C (second compound 1 µM, first compound 0.00949 µM) 93% | viability, T/C (second compound 1 µM, first compound 0.03 µM) 94.8% | viability, T/C (second compound 1 µM, first compound 0.0949 µM) 86.9% | viability, T/C (second compound 1 µM, first compound 0.3 µM) 42.6%
275 nM: IC50 (second compound 0.1 µM)
299 nM: IC50 (second compound 0.0316 µM)
249 nM: IC50 (second compound 1 µM)
> 300 nM: IC50 (second compound 0.01 µM)
265 nM: IC50 (second compound 0.316 µM)

NC1CCC(NC2CC2c2ccccc2)CC1 (stereo not given) + CNC(C)C(=O)NC1CN(S(=O)(=O)c2cccc(S(=O)(=O)N3CCC4CCC(C(=O)NC(c5ccccc5)c5ccccc5)N4C(=O)C(NC(=O)C(C)NC)C3)c2)CCC2CCC(C(=O)NC(c3ccccc3)c3ccccc3)N2C1=O
inactive: viability, T/C (second compound 0.01 µM, first compound 0.000316 µM) 93.4% | viability, T/C (second compound 0.01 µM, first compound 0.001 µM) 92.8% | viability, T/C [21] 88.7% | viability, T/C [22] 89.4% | viability, T/C [1] 84.2% | viability, T/C [2] 91% | viability, T/C (second compound 0.0316 µM, first compound 0.000316 µM) 106% | viability, T/C (second compound 0.0316 µM, first compound 0.001 µM) 80.6% | viability, T/C [23] 91.8% | viability, T/C [24] 81.8% | viability, T/C [5] 80.2% | viability, T/C [6] 80.4% | viability, T/C (second compound 0.1 µM, first compound 0.000316 µM) 84.8% | viability, T/C (second compound 0.1 µM, first compound 0.001 µM) 91% | viability, T/C [25] 85.5% | viability, T/C [26] 81.4% | viability, T/C [9] 82.9% | viability, T/C [10] 89.7% | viability, T/C (second compound 0.316 µM, first compound 0.000316 µM) 87.6% | viability, T/C (second compound 0.316 µM, first compound 0.001 µM) 99.3% | viability, T/C [27] 82% | viability, T/C [28] 80.8% | viability, T/C [13] 88.1% | viability, T/C [14] 105% | viability, T/C (second compound 1 µM, first compound 0.000316 µM) 97.2% | viability, T/C (second compound 1 µM, first compound 0.001 µM) 88.5% | viability, T/C [29] 89.7% | viability, T/C [30] 88% | viability, T/C [17] 84% | viability, T/C [18] 90.2%
> 100 nM: IC50 (second compound 0.01 µM) | IC50 (second compound 0.0316 µM) | IC50 (second compound 0.1 µM) | IC50 (second compound 0.316 µM) | IC50 (second compound 1 µM)
